Data reported in PubChem BioAssay AID2060350 (Molecular Pharmacology Branch, DTP, NCI, 2025).

Test system: PDC 521955-158-R6-J3 spheroids, viability
Assay: Anticancer human tumor 521955-158-R6-J3-PDC patient-derived pancreatic carcinoma cell line growth inhibition [TAK]
Conditions: spheroids with HUVEC and MSC; for IC50: curve of first compound; for viability, T/C: stronger effect = lower value
Source text: Combinatorial screen of targeted agents with TAK-243 and ipatasertib in multi-cell type tumor spheroids
A high-throughput screen of multi-cell type tumor spheroids was designed to identify active combinations of targeted small molecules and TAK-243 or ipatasertib. Complex spheroids include a stromal component modeled by human endothelial cells (HUVEC) and fibroblasts modeled by human mesenchymal stem cells (MSCs). The concentration ranges selected for each drug and investigational agent were based upon clinically achievable concentrations if the clinical Cmax of the agent was known.
Compounds. The drugs and investigational agents: TAK-243 (785004), ipatasertib (767898), everolimus (733504), selumetinib (741078), bortezomib (756655), trametinib (758246), ixazomib (758254), vemurafenib (761431), dabrafenib (764134), sapanisertib (764658), alpelisib (765974), and copanlisib (816437), were obtained from the National Cancer Institute (NCI) Developmental Therapeutics Program Chemical Repository. The FDA-approved anticancer drug set is available from the NCI Developmental Therapeutics Program. […] The stock solutions were prepared in dimethyl sulfoxide (DMSO, Sigma-Aldrich, St. Louis, MO, cat. D2650) at 800-fold the tested concentration and stored at -70 degrees C prior to their use. All drugs and investigational agents were tested over a range starting from a high concentration at or near the clinical Cmax and decreasing in half-log increments. If the clinical Cmax for an agent had not been determined, the highest concentration tested was 10 microM.
NCI60 Cell Culture. NCI60 cell lines were obtained from the NCI Developmental Therapeutics Program Tumor Repository. For each lot of cells, the Repository performed Applied Biosystems AmpFLSTR Identifiler testing with PCR amplification to confirm consistency with the published Identifier STR profile for each cell line. Cells were kept in continuous culture for no more than 20 passages. The optimal seeding densities for each of the cell lines at each time point assessed were determined prior to performing the concentration response studies. Briefly, the NCI60 human tumor lines were grown as monolayers in RPMI 1640 medium supplemented with 10% FBS and 2 mmol/L L-glutamine.
An additional 2 lines were from the NCI60 cell line panel including melanomas, MALME-3M and SK-MEL-2. Pooled donor human umbilical vein endothelial cells (HUVEC, Lonza, cat. CC-2519) and human mesenchymal stem cells (hMSC, Lonza, cat. PT-2501) were purchased from Lonza (Walkersville, MD).
PDMR cell lines were grown in complete medium (DC medium): Dulbecco's modified Eagle's medium (DMEM)/F12 supplemented with 5% fetal bovine serum (FBS), 2 mM L-glutamine, 100 U/mL penicillin and 100 µg/ml streptomycin, 0.4 µg/ml hydrocortisone, 10 ng/ml epidermal growth factor (EGF) recombinant human protein, 24 µg/mL adenine, and 0.1 mg/mL primocin. During culture from frozen stock vials, PDMR cells were cultured in the same medium containing 10 µM Y-27632 (see Table 3). The PDCs were cultured in complete DMEM/F12 media without 10 microM Y-27632 dihydrochloride for at least two passages prior to the screen. The pooled donor HUVEC and hMSC were cultured in endothelial cell growth medium 2 (PromoCell, Heidelberg, Germany, cat. C-22011) and mesenchymal stem cell growth medium 2 (PromoCell, cat. C-28009), respectively. For all experiments, HUVEC and hMSC were used at passages </=5.
For the pre-screen, cell seeding densities were determined from a titration spanning the range from 5,000 to 313 cells per well. The mct-spheroids including 60% malignant cells, 25% HUVEC and 15% MSC dispensed as a mixture into U-bottom Ultra-Low Attachment 384-well plates (Corning, NY)
High-throughput Drug Combination Screening.
Prior to their inoculation into 384-well plates, malignant cells, HUVEC, and hMSC were removed from T flasks using TrypLE express (Thermo Fisher Scientific, cat. 12605036) and harvested by centrifugation for 5 min at 233 x g. […]
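Also: spheroids exposed to drugs for 7 days before readout.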
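For viability, T/C in this document: 100% = DMSO vehicle control viability.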

COC1CC2CCC(C)C(O)(O2)C(=O)C(=O)N2CCCCC2C(=O)OC(C(C)CC2CCC(OCCO)C(OC)C2)CC(=O)C(C)C=C(C)C(O)C(OC)C(=O)C(C)CC(C)C=CC=CC=C1C (stereo not given) + CC(C)NCC(C(=O)N1CCN(c2ncnc3c2C(C)CC3O)CC1)c1ccc(Cl)cc1
IC50 (second compound 0.3 µM): > 100 nM | IC50 (second compound 0.949 µM): > 100 nM | IC50 (second compound 3 µM): > 100 nM | IC50 (second compound 9.49 µM): > 100 nM | IC50 (second compound 30 µM): > 100 nM | viability, T/C (second compound 0.3 µM, first compound 0.000316 µM): 98.5% | viability, T/C (second compound 0.3 µM, first compound 0.001 µM): 93% | viability, T/C (second compound 0.3 µM, first compound 0.00316 µM): 97% | viability, T/C (second compound 0.3 µM, first compound 0.01 µM): 96.4% | viability, T/C (second compound 0.3 µM, first compound 0.0316 µM): 102% | viability, T/C (second compound 0.3 µM, first compound 0.1 µM): 81.1% | viability, T/C (second compound 0.949 µM, first compound 0.000316 µM): 95.8% | viability, T/C (second compound 0.949 µM, first compound 0.001 µM): 89.6% | viability, T/C (second compound 0.949 µM, first compound 0.00316 µM): 99.1% | viability, T/C (second compound 0.949 µM, first compound 0.01 µM): 102% | viability, T/C (second compound 0.949 µM, first compound 0.0316 µM): 91.3% | viability, T/C (second compound 0.949 µM, first compound 0.1 µM): 78% | viability, T/C (second compound 3 µM, first compound 0.000316 µM): 96.5% | viability, T/C (second compound 3 µM, first compound 0.001 µM): 78.3% | viability, T/C (second compound 3 µM, first compound 0.00316 µM): 85.8% | viability, T/C (second compound 3 µM, first compound 0.01 µM): 89.1% | viability, T/C (second compound 3 µM, first compound 0.0316 µM): 73.7% | viability, T/C (second compound 3 µM, first compound 0.1 µM): 63.3% | viability, T/C (second compound 9.49 µM, first compound 0.000316 µM): 86.2% | viability, T/C (second compound 9.49 µM, first compound 0.001 µM): 67.7% | viability, T/C (second compound 9.49 µM, first compound 0.00316 µM): 65% | viability, T/C (second compound 9.49 µM, first compound 0.01 µM): 74.8% | viability, T/C (second compound 9.49 µM, first compound 0.0316 µM): 76.8% | viability, T/C (second compound 9.49 µM, first compound 0.1 µM): 58.4% | viability, T/C (second compound 30 µM, first compound 0.000316 µM): 81.8% | viability, T/C (second compound 30 µM, first compound 0.001 µM): 59.6% | viability, T/C (second compound 30 µM, first compound 0.00316 µM): 55.9% | viability, T/C (second compound 30 µM, first compound 0.01 µM): 62.8% | viability, T/C (second compound 30 µM, first compound 0.0316 µM): 56% | viability, T/C (second compound 30 µM, first compound 0.1 µM): 48.4%
